Data: PubChem BioAssay AID248 (DTP/NCI, 2004)
Values joined by “and” are separate entries in the source; they are usually repeats but may differ in a detail not shown here. Equal entries are not always repeated. Inconclusive results and toxic doses are left out.

Tested on: L1210 leukemia ip in BDF1 mice, survival T/C
Test: NCI In Vivo Anticancer Drug Screen. Data for tumor model L1210 Leukemia (intraperitoneal) in B6D2F1 (BDF1) mice
Details: endpoint: mean survival time, higher = longer survival
Method in brief: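 Ratio derived from survival: compound-dosed mice over vehicle-dosed mice, all bearing a transplantable tumor.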

[1] = dose: 100.0 mg/kg/injection, schedule: Q01DX009 (ip), vehicle: saline
[2] = dose: 100.0 mg/kg/injection, schedule: Q04DX003 (ip), vehicle: saline
[3] = dose: 200.0 mg/kg/injection, schedule: Q01DX009 (ip), vehicle: saline
[4] = dose: 200.0 mg/kg/injection, schedule: Q04DX003 (ip), vehicle: saline
[5] = dose: 400.0 mg/kg/injection, schedule: Q01DX009 (ip), vehicle: saline
[6] = dose: 400.0 mg/kg/injection, schedule: Q04DX003 (ip), vehicle: saline
[7] = dose: 100.0 mg/kg/injection, schedule: Q01DX001 (ip), vehicle: saline
[8] = dose: 200.0 mg/kg/injection, schedule: Q01DX001 (ip), vehicle: saline
[9] = dose: 400.0 mg/kg/injection, schedule: Q01DX001 (ip), vehicle: saline
[10] = dose: 100.0 mg/kg/injection, schedule: Q04DX003 (ip), vehicle: Klucel (hydroxypropylcellulose) (HPC)
[11] = dose: 200.0 mg/kg/injection, schedule: Q04DX003 (ip), vehicle: Klucel (hydroxypropylcellulose) (HPC)
[12] = dose: 400.0 mg/kg/injection, schedule: Q04DX003 (ip), vehicle: Klucel (hydroxypropylcellulose) (HPC)

For `CN=C(N)c1ccc(NC(=O)c2ccc(C(=O)Nc3ccc(C(N)=NC)cc3)cc2)cc1`, the T/C (dose: 1.9 mg/kg/injection, schedule: Q01DX Z (ip), vehicle: methylcellulose (MC)) was 102 % of control, the T/C (dose: 2.0 mg/kg/injection, schedule: Q01DX006 (iv), vehicle: saline) was 104 % of control and the T/C (dose: 2.0 mg/kg/injection, schedule: Q01DX Z (sc), vehicle: saline) was 101 % of control. The T/C (dose: 2.0 mg/kg/injection, schedule: Q02DX004 (im), vehicle: saline) was 103 % of control, the T/C (dose: 3.75 mg/kg/injection, schedule: Q01DX Z (ip), vehicle: methylcellulose (MC)) was 124 % of control and the T/C (dose: 4.0 mg/kg/injection, schedule: Q01DX006 (iv), vehicle: saline) was 103 % of control. For the same compound, the T/C (dose: 4.0 mg/kg/injection, schedule: Q01DX Z (sc), vehicle: saline) was 97 % of control, the T/C (dose: 4.0 mg/kg/injection, schedule: Q02DX004 (im), vehicle: saline) was 103 % of control and the T/C (dose: 5.5 mg/kg/injection, schedule: Q01DX Z (ip), vehicle: methylcellulose (MC)) was 177 % of control. For the same compound, the T/C (dose: 8.0 mg/kg/injection, schedule: Q01DX006 (iv), vehicle: saline) was 106 % of control, the T/C (dose: 8.0 mg/kg/injection, schedule: Q01DX010 (oral), vehicle: saline) was 106 % of control and the T/C (dose: 8.0 mg/kg/injection, schedule: Q01DX Z (sc), vehicle: saline) was 94 % of control. For the same compound, the T/C (dose: 8.0 mg/kg/injection, schedule: Q02DX004 (im), vehicle: saline) was 108 % of control, the T/C (dose: 15.0 mg/kg/injection, schedule: Q01DX Z (ip), vehicle: methylcellulose (MC)) was 150 % of control and 156 % of control and the T/C (dose: 16.0 mg/kg/injection, schedule: Q01DX010 (oral), vehicle: saline) was 97 % of control. The T/C (dose: 16.0 mg/kg/injection, schedule: Q01DX Z (sc), vehicle: saline) was 98 % of control, the T/C (dose: 16.0 mg/kg/injection, schedule: Q02DX004 (im), vehicle: saline) was 108 % of control and the T/C (dose: 30.0 mg/kg/injection, schedule: Q01DX Z (ip), vehicle: methylcellulose (MC)) was 171 % of control and 173 % of control. For the same compound, the T/C (dose: 32.0 mg/kg/injection, schedule: Q01DX010 (oral), vehicle: saline) was 97 % of control, the T/C (dose: 42.4 mg/kg/injection, schedule: Q01DX007 (oral), vehicle: carboxymethylcellulose (CMC)) was 100 % of control and the T/C (dose: 60.0 mg/kg/injection, schedule: Q01DX Z (ip), vehicle: methylcellulose (MC)) was 174 % of control. The T/C (dose: 64.0 mg/kg/injection, schedule: Q01DX007 (oral), vehicle: carboxymethylcellulose (CMC)) was 105 % of control, the T/C (dose: 64.0 mg/kg/injection, schedule: Q01DX010 (oral), vehicle: saline) was 103 % of control and the T/C (dose: 96.0 mg/kg/injection, schedule: Q01DX007 (oral), vehicle: carboxymethylcellulose (CMC)) was 103 % of control. For the same compound, the T/C (dose: 120.0 mg/kg/injection, schedule: Q01DX Z (ip), vehicle: methylcellulose (MC)) was 108 % of control, the T/C (dose: 144.0 mg/kg/injection, schedule: Q01DX007 (oral), vehicle: carboxymethylcellulose (CMC)) was 108 % of control and the T/C (dose: 150.0 mg/kg/injection, schedule: Q01DX Z (oral), vehicle: saline) was 100 % of control. The T/C (dose: 300.0 mg/kg/injection, schedule: Q01DX Z (oral), vehicle: saline) was 93 % of control and the T/C (dose: 600.0 mg/kg/injection, schedule: Q01DX Z (oral), vehicle: saline) was 115 % of control.
In the case of `O=C(O)Cn1c(=O)ccc2ccccc21`, the T/C (dose: 100.0 mg/kg/injection, schedule: Q04DX002 (ip), vehicle: saline with Tween-80) is reported as 91 % of control, the T/C (dose: 200.0 mg/kg/injection, schedule: Q04DX002 (ip), vehicle: saline with Tween-80) is reported as 95 % of control and the T/C (dose: 400.0 mg/kg/injection, schedule: Q04DX002 (ip), vehicle: saline with Tween-80) is reported as 95 % of control.
In the case of `CCCCCCCCCCN1C(=O)c2ccccc2S1(=O)=O`, the T/C [1] is reported as 95 % of control, the T/C [2] is reported as 97 % of control and the T/C [3] is reported as 97 % of control. For the same compound, the T/C [4] was 100 % of control, the T/C [5] was 97 % of control and the T/C [6] was 95 % of control.
For `C#CCOC(=O)CCC(=O)OCC#C`, the T/C [7] was 103 % of control, the T/C [1] was 94 % of control and the T/C [2] was 94 % of control. The T/C [8] was 100 % of control, the T/C [3] was 97 % of control and the T/C [4] was 96 % of control. The T/C [9] was 100 % of control, the T/C [5] was 94 % of control and the T/C [6] was 98 % of control.
In the case of `C[N+](C)(C)c1ncnc2c1ncn2C1CCCO1` (stereo unspecified), the T/C (dose: 50.0 mg/kg/injection, schedule: Q01DX Z (ip), vehicle: methylcellulose (MC)) is reported as 92 % of control and the T/C (dose: 100.0 mg/kg/injection, schedule: Q01DX Z (ip), vehicle: methylcellulose (MC)) is reported as 94 % of control.
In the case of `COc1ccc(C(=S)N(C)c2ccccc2C)cc1`, the T/C (dose: 100.0 mg/kg/injection, schedule: Q01DX001 (ip), vehicle: Klucel (hydroxypropylcellulose) (HPC)) is reported as 98 % of control, the T/C [10] is reported as 96 % of control and the T/C (dose: 200.0 mg/kg/injection, schedule: Q01DX001 (ip), vehicle: Klucel (hydroxypropylcellulose) (HPC)) is reported as 112 % of control. For the same compound, the T/C [11] was 103 % of control, the T/C (dose: 400.0 mg/kg/injection, schedule: Q01DX001 (ip), vehicle: Klucel (hydroxypropylcellulose) (HPC)) was 105 % of control and the T/C [12] was 100 % of control.
With `Nc1nc2nc(CCc3ccccc3)cnc2c(=O)[nH]1` the T/C (dose: 25.0 mg/kg/injection, schedule: Q01DX001 (ip), vehicle: saline with Tween-80) was 96 % of control, the T/C (dose: 50.0 mg/kg/injection, schedule: Q01DX001 (ip), vehicle: saline with Tween-80) was 93 % of control and the T/C (dose: 100.0 mg/kg/injection, schedule: Q01DX001 (ip), vehicle: saline with Tween-80) was 90 % of control.
`S=c1[nH]c2[nH]cnc(=S)c2[nH]1` was tested, and the T/C [7] was 97 % of control and the T/C [8] was 97 % of control.
In the case of `Cc1cc(OC(=O)c2ccc(N)cc2)ccc1C1=NCC(C)S1` (stereo unspecified), the T/C (dose: 25.0 mg/kg/injection, schedule: Q04DX002 (ip), vehicle: DMSO) is reported as 89 % of control, the T/C (dose: 50.0 mg/kg/injection, schedule: Q04DX002 (ip), vehicle: DMSO) is reported as 92 % of control and the T/C (dose: 100.0 mg/kg/injection, schedule: Q04DX002 (ip), vehicle: DMSO) is reported as 100 % of control.
For `CC1(C)SC(C)(C)N(C=O)C1C(=O)O` (stereo unspecified), the T/C [7] was 94 % of control, the T/C (dose: 100.0 mg/kg/injection, schedule: Q01DX009 (ip), vehicle: Klucel (hydroxypropylcellulose) (HPC)) was 93 % of control and the T/C [10] was 105 % of control. For the same compound, the T/C [8] was 94 % of control, the T/C (dose: 200.0 mg/kg/injection, schedule: Q01DX009 (ip), vehicle: Klucel (hydroxypropylcellulose) (HPC)) was 94 % of control and the T/C [11] was 95 % of control. The T/C [9] was 110 % of control, the T/C (dose: 400.0 mg/kg/injection, schedule: Q01DX009 (ip), vehicle: Klucel (hydroxypropylcellulose) (HPC)) was 96 % of control and the T/C [12] was 97 % of control.
`CC(C)CC1NC(=O)C(C(C)C)NC(=O)CC(C)COC(=O)C(CC(C)C)N(C)C(=O)C(C(C)C)NC(=O)C(C(C)C)OC1=O` (stereo unspecified) was tested, and the T/C (dose: 75.0 mg/kg/injection, schedule: Q01DX001 (ip), vehicle: carboxymethylcellulose (CMC)) was 96 % of control and the T/C (dose: 150.0 mg/kg/injection, schedule: Q01DX001 (ip), vehicle: carboxymethylcellulose (CMC)) was 96 % of control.
With `NC(=O)C1C2C=CC(O2)C1C(=O)O` (stereo unspecified) the T/C (dose: 12.5 mg/kg/injection, schedule: Q04DX002 (ip), vehicle: saline) was 111 % of control, the T/C (dose: 25.0 mg/kg/injection, schedule: Q04DX002 (ip), vehicle: saline) was 97 % of control and the T/C (dose: 50.0 mg/kg/injection, schedule: Q04DX002 (ip), vehicle: saline) was 103 % of control.
In the case of `COc1cc(CC#N)ccc1C`, the T/C (dose: 12.5 mg/kg/injection, schedule: Q01DX009 (ip), vehicle: alcohol) is reported as 104 % of control, the T/C (dose: 25.0 mg/kg/injection, schedule: Q01DX009 (ip), vehicle: alcohol) is reported as 98 % of control and the T/C (dose: 50.0 mg/kg/injection, schedule: Q01DX009 (ip), vehicle: alcohol) is reported as 101 % of control.
In the case of `COc1ccc(OC)c2c1C=CCC2`, the T/C (dose: 100.0 mg/kg/injection, schedule: Q01DX001 (ip), vehicle: carboxymethylcellulose (CMC)) is reported as 96 % of control, the T/C (dose: 200.0 mg/kg/injection, schedule: Q01DX001 (ip), vehicle: carboxymethylcellulose (CMC)) is reported as 91 % of control and the T/C (dose: 400.0 mg/kg/injection, schedule: Q01DX001 (ip), vehicle: carboxymethylcellulose (CMC)) is reported as 104 % of control.
With `CCOc1ccc(/C=N\NC(=O)CCCC(=O)N/N=C/c2ccc(OCC)c(OCC)c2)cc1OCC` the T/C (dose: 50.0 mg/kg/injection, schedule: Q01DX001 (ip), vehicle: saline) was 103 % of control, the T/C [7] was 95 % of control and the T/C [8] was 87 % of control.
